Among the data in patent US10221179B2, “Substituted pyrazoloquinazolinones and pyrroloquinazolinones as allosteric modulators of group II metabotropic glutamate receptors” (DOMAIN THERAPEUTICS, priority 2014, dated 2019) are IC50 and melting point values, retold here.

Where only a bound is given, the exact number is not on record here.

One data set concerns the target T1, human mGluR2 (hmGluR2) (Homo sapiens, UniProt Q14416).
T1 construct: expressed in transfected cells; host or cells: HEK-293 cells, transient co-transfection by electroporation
Kind of data set: Ca++ functional assay, human mGluR2 transiently over-expressed in HEK-293 cells (agonist and negative allosteric modulator modes). The data set is classed as cell-based. The conditions noted are these: glutamate at EC80, intracellular calcium (Fluo4AM), read-out: hmGluR2 negative allosteric modulator activity IC50. How it is done: Example 127: Human mGluR2 and mGluR3 Evaluation Using Ca^++ Functional Assay
Examples of the present invention were tested successively for their agonist and negative allosteric modulator activities on human mGluR2 (hmGluR2) and mGluR3 (hmGluR3) transiently over-expressed in HEK-293 cells.
Cell Culture and Transfection
HEK-293 cells are maintained in Modified Eagle's Medium supplemented with 10% Foetal Calf Serum, 1% Penicillin/Streptomycin and 1% non-essential amino acids at 37° C./5% CO2.
Cells are co-transfected by electroporation with four DNA plasmids encoding hmGluR2 or hmGluR3, a chimeric G protein allowing redirection of the activation signal to intracellular calcium pathway (Brabet I et al., Neuropharmacology 37(8), 1043-51, 1998), and two glutamate transporters minimizing receptor desensitization by endogenous glutamate. After transfection, cells are cultured for 24 h at 37° C./5% CO2.
Calcium Assay IC50 Determination
Receptor activity is detected by changes in intracellular calcium measured using the fluorescent Ca^2+ sensitive dye, Fluo4AM (Molecular Probes).
On the day of the assay, culture medium is aspirated and replaced during 3 hours by medium without serum supplemented with 1% Glutamax, 1% Penicillin/Streptomycin and 1% non-essential amino acids. Then, cells are washed with freshly prepared buffer B (HBSS 1×(PAA), Hepes 20 mM, MgSO4-7H2O 1 mM, Na2CO3 3.3 mM, CaCl2-2H2O 1.3 mM, 0.1% BSA, Probenecid 2.5 mM) and loaded at 37° C. in 5% CO2 for 1.5 hours with buffer B containing 1 μM Fluo4AM, 0.1 mg/mL Pluronic Acid, 7 μg/mL Glutamate Pyruvate Transaminase and 2 mM sodium pyruvate. Afterwards cells are washed twice with buffer B. Then cells are detached using StemPro Accutase (Fischer Scientific), resuspended in buffer B and seeded in 384 well plate at a density of 30,000 cells per well. Addition of compounds and intracellular Ca^2+ measurements (excitation 485 nm, emission 525 nm) are performed by the fluorescence microplate reader FLIPRTetra (Molecular Devices).
Agonist and negative allosteric modulator activities of compounds are consecutively evaluated on the same cell plate. […] Then, cells are stimulated by an EC80 glutamate concentration and fluorescence is recorded for additional 3 minutes. EC80 glutamate concentration is the concentration giving 80% of the maximal glutamate response. Agonist or negative allosteric modulator activity(ies) are evaluated in comparison to basal signals evoked by buffer B or EC80 glutamate alone, respectively.
For IC50 determination, a dose-response test is performed using 20 concentrations (ranging over 6 logs) of each compound. Dose-response curves are fitted using the sigmoidal dose-response (variable slope) analysis in GraphPad Prism program (Graph Pad Inc) and IC50 of negative allosteric modulator activity is calculated. Dose-response experiments are performed in duplicate, two times independently.

T1 sequence (Q14416 19-872): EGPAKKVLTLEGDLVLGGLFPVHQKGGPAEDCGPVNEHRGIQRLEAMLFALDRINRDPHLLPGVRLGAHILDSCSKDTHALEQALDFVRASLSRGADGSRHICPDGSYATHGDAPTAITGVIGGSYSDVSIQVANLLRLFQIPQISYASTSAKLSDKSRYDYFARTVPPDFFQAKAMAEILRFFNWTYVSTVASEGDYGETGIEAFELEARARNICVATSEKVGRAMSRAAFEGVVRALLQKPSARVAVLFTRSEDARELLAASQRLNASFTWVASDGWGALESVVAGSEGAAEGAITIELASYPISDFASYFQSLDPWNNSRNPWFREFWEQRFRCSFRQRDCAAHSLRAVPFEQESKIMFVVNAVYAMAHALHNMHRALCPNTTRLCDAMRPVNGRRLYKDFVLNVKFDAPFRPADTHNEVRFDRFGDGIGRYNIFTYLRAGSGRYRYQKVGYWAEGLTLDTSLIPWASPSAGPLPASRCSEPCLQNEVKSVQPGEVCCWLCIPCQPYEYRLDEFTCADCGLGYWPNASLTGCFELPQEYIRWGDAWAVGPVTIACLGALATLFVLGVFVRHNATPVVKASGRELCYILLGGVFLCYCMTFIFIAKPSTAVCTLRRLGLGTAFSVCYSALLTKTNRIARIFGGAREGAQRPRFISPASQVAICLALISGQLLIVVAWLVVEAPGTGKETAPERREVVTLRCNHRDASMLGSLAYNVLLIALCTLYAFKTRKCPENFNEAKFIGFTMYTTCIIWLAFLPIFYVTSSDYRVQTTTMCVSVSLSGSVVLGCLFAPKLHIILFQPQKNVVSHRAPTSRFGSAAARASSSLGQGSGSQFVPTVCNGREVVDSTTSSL

The molecule `Cn1c(=O)c2cc(F)ccc2n2nc(-c3ccnc(C(F)(F)F)c3)cc12` [Example 38] showed a melting point greater than 250 °C. Further, the IC50 at human mGluR2 (hmGluR2) was less than 1000 nM.
Molecule `CNc1ccc2c(c1)c(=O)n(C)c1cc(-c3ccnc(C(F)(F)F)c3)nn21` [Example 40, 4-Methyl-7-methylamino-2-(2-trifluoromethyl-pyridin-4-yl)-4H-pyrazolo[1,5-a]quinazolin-5-one] gave a melting point greater than 250 °C. Also, on human mGluR2 (hmGluR2), the IC50 is less than 1000 nM.
Taken in the same sequence, the figures for `[2H]C([2H])([2H])Nc1ccc2c(c1)c(=O)n(C)c1cc(-c3ccnc(C(F)(F)F)c3)nn21` [Example 41, 4-Methyl-7-methyl(D3)amino-2-(2-trifluoromethyl-pyridin-4-yl)-4H-pyrazolo[1,5-a]quinazolin-5-one] were greater than 250 °C and less than 1000 nM.
The corresponding values for `CN(C)c1ccc2c(c1)c(=O)n(C)c1cc(-c3ccnc(C(F)(F)F)c3)nn21` [Example 44, 7-Dimethylamino-4-methyl-2-(2-trifluoromethyl-pyridin-4-yl)-4H-pyrazolo[1,5-a]quinazolin-5-one] are greater than 250 °C and less than 1000 nM.
Molecule `CCNc1ccc2c(c1)c(=O)n(C)c1cc(-c3ccnc(C(F)(F)F)c3)nn21` [Example 45, 7-Ethylamino-4-methyl-2-(2-trifluoromethyl-pyridin-4-yl)-4H-pyrazolo[1,5-a]quinazolin-5-one] displayed a melting point of 239 to 242 °C. In addition, the IC50 on human mGluR2 (hmGluR2) is less than 1000 nM.
Taken in the same sequence, the figures for `Cn1c(=O)c2cc(O)ccc2n2nc(-c3ccnc(C(F)(F)F)c3)cc12` [Example 48, 7-Hydroxy-4-methyl-2-(2-trifluoromethyl-pyridin-4-yl)-4H-pyrazolo[1,5-a]quinazolin-5-one] were greater than 250 °C and less than 1000 nM.
In turn, `CCOc1ccc2c(c1)c(=O)n(C)c1cc(-c3ccnc(C(F)(F)F)c3)nn21` [Example 49, 7-Ethoxy-4-methyl-2-(2-trifluoromethyl-pyridin-4-yl)-4H-pyrazolo[1,5-a]quinazolin-5-one] came in with a melting point of 152 to 158 °C. For the same molecule, the IC50 at human mGluR2 (hmGluR2) was less than 1000 nM.
Taken in the same sequence, the figures for `Cn1c(=O)c2ccc(F)cc2n2nc(-c3ccnc(C(F)(F)F)c3)cc12` [Example 55, 8-Fluoro-4-methyl-2-(2-trifluoromethyl-pyridin-4-yl)-4H-pyrazolo[1,5-a]quinazolin-5-one] were greater than 250 °C and less than 1000 nM.
The corresponding values for `CNc1ccc2c(=O)n(C)c3cc(-c4ccnc(C(F)(F)F)c4)nn3c2c1` [Example 61, 4-Methyl-8-methylamino-2-(2-trifluoromethyl-pyridin-4-yl)-4H-pyrazolo[1,5-a]quinazolin-5-one] are greater than 250 °C and less than 1000 nM.
The corresponding values for `Cn1c(=O)c2ccc(N3CCC(O)CC3)cc2n2nc(-c3ccnc(C(F)(F)F)c3)cc12` [Example 63, 8-(4-Hydroxy-piperidin-1-yl)-4-methyl-2-(2-trifluoromethyl-pyridin-4-yl)-4H-pyrazolo[1,5-a]quinazolin-5-one] are 112 to 117 °C and less than 1000 nM.
For the molecule `CN(C)c1ccc2c(=O)n(C)c3cc(-c4ccnc(C(F)(F)F)c4)nn3c2c1` [Example 64, 8-Dimethylamino-4-methyl-2-(2-trifluoromethyl-pyridin-4-yl)-4H-pyrazolo[1,5-a]quinazolin-5-one], the melting point was greater than 250 °C. Also, at human mGluR2 (hmGluR2), the 50% inhibitory concentration (IC50) is less than 1000 nM.
`Cn1c(=O)c2ccc(N3CC(O)C3)cc2n2nc(-c3ccnc(C(F)(F)F)c3)cc12` [Example 68, 8-(3-Hydroxy-azetidin-1-yl)-4-methyl-2-(2-trifluoromethyl-pyridin-4-yl)-4H-pyrazolo[1,5-a]quinazolin-5-one] returned a melting point greater than 250 °C. Also, on human mGluR2 (hmGluR2), the IC50 is less than 1000 nM.
